Results from US20240285571A1, “METHODS OF TREATING BONE INFECTIONS” (MICROBION CORPORATION, priority 2020, published 2024).

Assays:
Assay in all cases: MIC of baseline clinical isolates (Example 8)
Assay type in all cases: cell-based
Dermabacter hominis = Dermabacter hominis baseline isolates (N′ = 1), central laboratory, mITT
How it was run: (§1)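 Specimens were taken on Day 1 and at each subsequent surgery from infected bone, adjacent peri-implant tissue, the deep infection site and superficial tissue. Bacteria were isolated and identified centrally, then susceptibility to MBN-101 (BisEDT) was tested following CLSI.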

[1] = system: Corynebacterium amycolatum; conditions: Corynebacterium amycolatum baseline isolates (N′ = 1), central laboratory, mITT
How it was run: as §1

Corynebacterium jeikeium = Corynebacterium jeikeium baseline isolates (N′ = 2), central laboratory, mITT
How it was run: as §1

[2] = system: Corynebacterium resistens; conditions: Corynebacterium resistens baseline isolates (N′ = 1), central laboratory, mITT
How it was run: as §1

Streptococcus oralis = Streptococcus oralis baseline isolates (N′ = 1), central laboratory, mITT
How it was run: as §1

Peptoniphilus gorbachii = Peptoniphilus gorbachii baseline isolates (N′ = 1), central laboratory, mITT
How it was run: (§2)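 Deep and superficial specimens from the index site (infected bone, tissue adjacent to implants, deep-site swabs, wound closure or sinus tract) were collected on Day 1. Collection was repeated at each later surgical procedure there.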

Staphylococcus arlettae = Staphylococcus arlettae baseline isolates (N′ = 1), central laboratory, mITT
How it was run: as §2

F. magna = conditions: Finegoldia magna baseline isolates (N′ = 4), central laboratory, mITT
How it was run: as §2

[3] = system: Staphylococcus haemolyticus; conditions: Staphylococcus haemolyticus baseline isolates (N′ = 1), central laboratory, mITT
How it was run: as §2

S. aureus (MRSA, MSSA) = conditions: Staphylococcus aureus, MRSA baseline isolates (N′ = 4), central laboratory, mITT
How it was run: as §2

Anaerococcus murdochii = Anaerococcus murdochii baseline isolates (N′ = 1), central laboratory, mITT
How it was run: as §2

Actinomyces turicensis = Actinomyces turicensis baseline isolates (N′ = 1), central laboratory, mITT
How it was run: as §2

[4] = system: Cutibacterium [Propionibacterium] acnes; conditions: Cutibacterium (Proprionibacterium) acnes baseline isolates (N′ = 3), central laboratory, mITT
How it was run: as §2

Staphylococcus hominis = Staphylococcus hominis baseline isolates (N′ = 1), central laboratory, mITT
How it was run: as §2

Clostridium sphenoides = Clostridium sphenoides baseline isolates (N′ = 1), central laboratory, mITT
How it was run: as §2

[5] = system: non-speciated Anaerococcus; conditions: Anaerococcus non-speciated baseline isolates (N′ = 1), central laboratory, mITT
How it was run: as §2

[6] = system: Staphylococcus lugdunensis; conditions: Staphylococcus lugdunensis baseline isolates (N′ = 3), central laboratory, mITT
How it was run: as §2

Staphylococcus pasteuri = Staphylococcus pasteuri baseline isolates (N′ = 1), central laboratory, mITT
How it was run: as §2

S. epidermidis = conditions: Staphylococcus epidermidis baseline isolates (N′ = 5), central laboratory, mITT
How it was run: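 Sampling Day 1 plus any subsequent index-site surgery; sources: infected bone/peri-implant tissue, deep swabs, superficial tissue/wound closure/sinus tract. Parallel sets to local site lab for treatment guidance.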

Compound	n (% resistant) (Dermabacter hominis)	n (% resistant) [1]	n (% resistant) (Corynebacterium jeikeium)	n (% resistant) [2]	n (% resistant) (Streptococcus oralis)	n (% resistant) (Peptoniphilus gorbachii)	n (% resistant) (Staphylococcus arlettae)	n (% resistant) (F. magna)	n (% resistant) [3]	n (% resistant) (S. aureus (MRSA, MSSA))	n (% resistant) (Anaerococcus murdochii)	n (% resistant) (Actinomyces turicensis)	n (% resistant) [4]	n (% resistant) (Staphylococcus hominis)	n (% resistant) (Clostridium sphenoides)	n (% resistant) [5]	n (% resistant) [6]	n (% resistant) (Staphylococcus pasteuri)	n (% resistant) (S. epidermidis)	also measured
CCC[C@@H]1C[C@@H](C(=O)N[C@@H]([C@H]2O[C@H](SC)[C@H](O)[C@@H](O)[C@H]2O)[C@H](C)Cl)N(C)C1 [CLI]	0 (0.0) n (%)	1 (100.0) n (%)	2 (100.0) n (%)	0 (0.0) n (%)	0 (0.0) n (%)	1 (100.0) n (%)	0 (0.0) n (%)	2 (50.0) n (%)	1 (100.0) n (%)	1 (25.0) n (%)	1 (100.0) n (%)	0 (0.0) n (%)	0 (0.0) n (%)	0 (0.0) n (%)	1 (100.0) n (%)	0 (0.0) n (%)	0 (0.0) n (%)	1 (100.0) n (%)	1 (20.0) n (%)	Mean MIC (Dermabacter hominis): 0.50 µg/mL; Mean MIC [1]: 2.00 µg/mL; Mean MIC (Corynebacterium jeikeium): 2.00 µg/mL; Mean MIC [2]: 0.50 µg/mL; Mean MIC (Streptococcus oralis): 0.03 µg/mL; Mean MIC (Peptoniphilus gorbachii): 8.00 µg/mL; Mean MIC (Staphylococcus arlettae): 0.25 µg/mL; Mean MIC (F. magna): 4.38 µg/mL; Mean MIC [3]: 8.00 µg/mL; Mean MIC (S. aureus (MRSA, MSSA)): 4.16 µg/mL; Mean MIC (Anaerococcus murdochii): 8.00 µg/mL; Mean MIC (Actinomyces turicensis): 0.25 µg/mL; Mean MIC [4]: 0.25 µg/mL; Mean MIC (Staphylococcus hominis): 0.12 µg/mL; Mean MIC (Clostridium sphenoides): 8.00 µg/mL; Mean MIC [5]: 0.25 µg/mL; Mean MIC [6]: 0.03 µg/mL; Mean MIC (Staphylococcus pasteuri): 1.00 µg/mL; Mean MIC (S. epidermidis): 3.66 µg/mL
C[C@H]1COc2c(N3CCN(C)CC3)c(F)cc3c(=O)c(C(=O)O)cn1c23 [Levofloxacin]	0 (0.0) n (%)	0 (0.0) n (%)	0 (0.0) n (%)	0 (0.0) n (%)	0 (0.0) n (%)	–	0 (0.0) n (%)	–	1 (100.0) n (%)	4 (100.0) n (%)	–	–	–	1 (100.0) n (%)	–	–	0 (0.0) n (%)	0 (0.0) n (%)	2 (40.0) n (%)	MIC (Dermabacter hominis): 1 µg/mL; MIC [1]: 8 µg/mL; MIC (Corynebacterium jeikeium): 0.18 µg/mL; MIC [2]: 0.12 µg/mL; MIC (Streptococcus oralis): 2 µg/mL; MIC (Staphylococcus arlettae): 0.5 µg/mL; MIC [3]: 8 µg/mL; MIC (S. aureus (MRSA, MSSA)): 8 µg/mL; MIC (Staphylococcus hominis): 8 µg/mL; MIC [6]: 0.92 µg/mL; MIC (Staphylococcus pasteuri): 0.25 µg/mL; MIC (S. epidermidis): 2.52 µg/mL
C[C@@H](O)[C@H]1C(=O)N2C(C(=O)O)=C(S[C@@H]3CN[C@H](C(=O)N(C)C)C3)[C@H](C)[C@H]12 [Meropenem]	–	–	–	–	–	0 (0.0) n (%)	–	0 (0.0) n (%)	–	–	0 (0.0) n (%)	0 (0.0) n (%)	0 (0.0) n (%)	–	0 (0.0) n (%)	0 (0.0) n (%)	–	–	–	MIC (Peptoniphilus gorbachii): 0.06 µg/mL; MIC (F. magna): 0.06 µg/mL; MIC (Anaerococcus murdochii): 0.06 µg/mL; MIC (Actinomyces turicensis; Schaalia turicensis): 0.25 µg/mL; MIC [4]: 0.06 µg/mL; MIC (Clostridium sphenoides; Lacrimispora sphenoides): 2 µg/mL; MIC [5]: 0.25 µg/mL
